The source of these data is patent publication US20200339544A1 (JOINT STOCK COMPANY "BIOCAD", priority 2017, published 2020).

The nature of data set [1]: Chemical stability in simulated intestinal fluid (SIF). It is filed as physicochemical. The settings on record: SIF without enzymes, pH 6.5; 10 μm; 2 hours at 37° C.; substance amount remaining. The procedure, abridged: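 Compound at 10 μm (diluted from 10 mM DMSO stock) incubated 2 h at 37° C in enzyme-free SGF, pH=1,4, or enzyme-free SIF, pH=6.5. HPLC peak areas before and after incubation give % compound remaining.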

In data set [2] the test system is HCC827 (lung adenocarcinoma, SM, exon19delE746-A750). Put plainly: Antiproliferative activity on HCC827 cells (Alamar Blue). It is filed as cell-based. The settings on record: Homo sapiens, antiproliferative test. An outline of the steps:
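HCC827 cells (EGFR exon19del E746-A750), 10×10^3/well, attached 16–18 h, then exposed to compounds for 72 h at 37 °C in RPMI-1640 with 2% FBS, ≤1% DMSO. Viability by Alamar Blue fluorescence (ex 540/em 590 nm) after 3–5 h; IC50 by four-parameter logistic fit.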
For orientation: Alamar Blue is a resazurin reagent that responds to reducing activity.

Data set [3] can be described thus: Permeability through monolayer of Caco-2 cells. It is filed as in vitro ADME. The settings on record: human, Caco-2 monolayer; for Papp A→B at 2 h, 10 µM: pH 6.5 upper / pH 7.4 lower, 2 h at 37° C.; for efflux ratio at 2 h, 10 µM: Papp B-A/Papp A-B. The text has this:
2) Assessment of permeability through monolayer of Caco-2 cells.
Assessment of permeability through the monolayer of Caco-2 cells allows to evaluate the ability of the candidate compounds to penetrate through biological membranes by active and passive transport.
Caco-2, the cells of the intestinal epithelium, had been cultured in transwell plate inserts with the filters (with pores of 0.4 μm, BD Falcon with High Density) for 21 days, and then the integrity of the monolayer were estimated with Lucifer Yellow (Sigma-Aldrich, USA) by standard protocol. When setting the A→B transfer (“intestinal lumen”—“blood stream” transfer), solutions of test substances were added in a buffer with pH 6.5 (HBSS, 10 mM HEPES, 15 mM glucose solution) with the concentration of 10 μM into the upper chamber; the lower chamber was filled with a buffer with pH 7.4 (HBSS, 10 mM HEPES, 15 mM Glucose, 1% BSA). When setting B→A transfer (“blood stream”—“intestinal lumen” transfer), the upper chamber was filled with the buffer with pH 6.5, and solutions of the test substances were added in the buffer with pH 7.4 at the concentration of 10 μM in the lower chamber. Propranolol was used as a control substance (as it has high permeability).
After incubating for 2 h at 37° C. under 5% CO2, the amounts of test substances were determined in the upper and lower chambers by HPLC using Agilent1200 chromatograph (Agilent, USA) with preliminary protein precipitation with acetonitrile. We used gradient elution (1 mL/min flow rate). We determined the areas of peaks corresponding to the compounds. On the basis of peak areas in the calibration standards we determined the concentration of compound in the initial solution and in the samples from the wells of the upper and lower chambers. Papp, permeability through the cell layer, was calculated using the following formula:
Papp=(C(t)*V)/(C(0)*t*Area), wherein
The value was calculated with the following formula:
efflux=Papp B-A/Papp A-B, wherein • Papp A-B—the volume of permeability in A→B test; • Papp B-A—he volume of permeability in B→A test.
In general terms: Passage across Caco-2 layers is used to estimate intestinal permeability.

Data set [4] can be described thus: Chemical stability in human blood plasma. The settings on record: pooled human blood plasma; 10 μm; 4 hours at 37° C.; substance amount remaining. It is filed as in vitro ADME. The procedure, abridged:
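Percent of parent remaining was derived by comparing HPLC peak areas at time zero and after 4 h at 37 °C. Test compound was at 10 μM in human plasma pooled from ten donors, and proteins were precipitated with acetonitrile before analysis.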

The IC50 is the concentration that inhibits the measured activity by half. High values mean a need for much substance, low ones inhibition by little substance. What is called Papp A→B is how fast a substance crosses the layer from the apical side. The low end stands for slow passage, the high end for fast passage. The term efflux ratio denotes a quotient of directional permeabilities that is used to spot active efflux. With `C=CC(=O)Nc1cc(Nc2nccc(C(=O)c3ccccc3C(F)(F)F)n2)c(OC)cc1N(C)CCN(C)C` [EGFR_3365, N-(2-((2-(dimethylamino)ethyl) (methyl)amino)-4-methoxy-5-((4-(2-(trifluoromethyl)benzoyl)pyrimidin-2-yl)amino)phenyl)acrylamide], the “Stability in SIF, %” value in data set [1] is given as 100.0%. The compound further gave an IC50 in data set [2] of 0.0143 µM. Besides, in data set [3], the Papp A→B at 2 h, 10 µM came out at 5.28 ×10⁻⁶ cm/s and the efflux ratio at 2 h, 10 µM is 1.29. For the same compound, the “Stability in blood plasma, %” value in data set [4] was 90.3%.

On to `C=CC(=O)Nc1cc(Nc2cc(C(=O)c3ccccc3)ccn2)c(OC)cc1N(C)CCN(C)C` [EGFR_3365_3, N-(5-((4-benzoylpyridin-2-yl)amino)-2-((2-(dimethylamino)ethyl)(methyl)amino)-4-methoxyphenyl)acrylamide], for which the “Stability in SIF, %” value in data set [1] was 100.0%. In data set [2], the IC50 amounted to 0.0023 µM. In addition, in data set [3], the Papp A→B at 2 h, 10 µM is 5.9 ×10⁻⁶ cm/s and the efflux ratio at 2 h, 10 µM amounted to 0.8. Besides, the “Stability in blood plasma, %” value in data set [4] was 82.1%.

As for `C=CC(=O)Nc1cc(Nc2nccc(C(=O)c3ccc(F)cc3)n2)c(OC)cc1N(C)CCN(C)C` [EGFR_3365_10, N-(2-((2-(dimethylamino)ethyl)(methyl)amino)-5-((4-(4-fluorobenzoyl)pyrimidin-2-yl)amino)-4-methoxyphenyl) acrylamide], the “Stability in SIF, %” value in data set [1] is reported as 100.0%. For the same compound, in data set [2], it took 0.0059 µM to reach half-maximal inhibition (IC50). For the same compound, in data set [3], the Papp A→B at 2 h, 10 µM amounted to 2.88 ×10⁻⁶ cm/s and the efflux ratio at 2 h, 10 µM is 0.58. In addition, the “Stability in blood plasma, %” value in data set [4] was 94.2%.

Turning to `C=CC(=O)Nc1cc(Nc2nccc(C(=O)c3ccccc3Br)n2)c(OC)cc1N(C)CCN(C)C` [EGFR_3365_12, N-(5-((4-(2-bromobenzoyl)pyrimidin-2-yl)amino)-2-((2-(dimethylamino)ethyl) (methyl)amino)-4-methoxyphenyl)acrylamide], in data set [1], the “Stability in SIF, %” value is 100.0%. Further, the IC50 in data set [2] came out at 0.0203 µM. Further, in data set [3], the Papp A→B at 2 h, 10 µM came out at 1.94 ×10⁻⁶ cm/s and the efflux ratio at 2 h, 10 µM is 0.98. In addition, in data set [4], the “Stability in blood plasma, %” value came to 76.3%.

As to `C=CC(=O)Nc1cc(Nc2nccc(C(=O)c3ccc(OC)cc3)n2)c(OC)cc1N(C)CCN(C)C` [EGFR_3365_28, N-(2-((2-(dimethylamino)ethyl)(methyl)amino)-4-methoxy-5-((4-(4-methoxybenzoyl)pyrimidin-2-yl)amino)phenyl)acrylamide], the “Stability in SIF, %” value in data set [1] is reported as 100.0%. This compound returned a half-inhibitory concentration (IC50) in data set [2] of 0.0153 µM. Also, in data set [3], the Papp A→B at 2 h, 10 µM is 3.84 ×10⁻⁶ cm/s and the efflux ratio at 2 h, 10 µM came to 1.87. The “Stability in blood plasma, %” value in data set [4] was determined as 86.2%.

As for `C=CC(=O)Nc1cc(Nc2nccc(C(=O)c3ccc(OCC)cc3)n2)c(OC)cc1N(C)CCN(C)C` [EGFR_3365_29, N-(2-((2-(dimethylamino)ethyl)(methyl)amino)-5-((4-(4-ethoxybenzoyl)pyrimidin-2-yl)amino)-4-methoxyphenyl) acrylamide], the “Stability in SIF, %” value in data set [1] is 100.0%. The compound further had an IC50 in data set [2] of 0.0062 µM. For the same compound, in data set [3], the Papp A→B at 2 h, 10 µM amounted to 4.26 ×10⁻⁶ cm/s and the efflux ratio at 2 h, 10 µM was 1.5. Also, in data set [4], the “Stability in blood plasma, %” value was 79.7%.

`C=CC(=O)Nc1cc(Nc2nccc(C(=O)c3ccc(OC(C)C)cc3)n2)c(OC)cc1N(C)CCN(C)C` [EGFR_3365_31, N-(2-((2-(dimethylamino)ethyl)(methyl)amino)-5-((4-(4-isopropoxybenzoyl)pyrimidin-2-yl)amino)-4-methoxyphenyl) acrylamide]: the “Stability in SIF, %” value in data set [1] is recorded as 97.2%. The IC50 in data set [2] was 0.0083 µM. Further, in data set [3], the Papp A→B at 2 h, 10 µM stood at 3.7 ×10⁻⁶ cm/s and the efflux ratio at 2 h, 10 µM came to 1.1. Moreover, in data set [4], the “Stability in blood plasma, %” value worked out at 93.1%.

`C=CC(=O)Nc1cc(Nc2cc(C(=O)c3ccc(OCCC)cc3)ccn2)c(OC)cc1N(C)CCN(C)C` [EGFR_3365_50, N-(2-((2-(dimethylamino)ethyl)(methyl)amino)-4-methoxy-5-((4-(4-propoxybenzoyl)pyridin-2-yl)amino)phenyl)acrylamide]: the “Stability in SIF, %” value in data set [1] was 98.5%. This compound came in with an IC50 in data set [2] of 0.0269 µM. Besides, in data set [3], the Papp A→B at 2 h, 10 µM worked out at 2 ×10⁻⁶ cm/s and the efflux ratio at 2 h, 10 µM amounted to 0.3. The “Stability in blood plasma, %” value in data set [4] is 89.0%.

With `C=CC(=O)Nc1cc(Nc2cc(C(=O)c3ccc(OCC)cc3)ccn2)c(OC)cc1N(C)CCN(C)C` [EGFR_3365_52, N-(2-((2-(dimethylamino)ethyl)(methyl)amino)-5-((4-(4-ethoxybenzoyl)pyridin-2-yl)amino)-4-methoxyphenyl) acrylamide], in data set [1], the “Stability in SIF, %” value is listed as 100.0%. The same compound showed an IC50 in data set [2] of 0.0225 µM. Further, in data set [3], the Papp A→B at 2 h, 10 µM is 3 ×10⁻⁶ cm/s and the efflux ratio at 2 h, 10 µM was 1.2.

For the compound `C=CC(=O)Nc1cc(Nc2cc(C(=O)c3ccc(N4CCCC4)cc3)ccn2)c(OC)cc1N(C)CCN(C)C` [EGFR_3365_56, N-(2-((2-(dimethylamino)ethyl)(methyl)amino)-4-methoxy-5-((4-(4-(pyrrolidin-1-yl)benzoyl)pyridin-2-yl)amino)phenyl)acrylamide], in data set [1], the “Stability in SIF, %” value is given as 96.4%. Also, in data set [2], the IC50 was determined as 0.0299 µM. Moreover, in data set [3], the apical-to-basolateral permeability (Papp A→B) at 2 h, 10 µM stood at 1.8 ×10⁻⁶ cm/s and the efflux ratio at 2 h, 10 µM was determined as 1.7. The “Stability in blood plasma, %” value in data set [4] amounted to 83.2%.

In the case of `C=CC(=O)Nc1cc(Nc2nccc(C(=O)c3ccc(N4CCC4)cc3)n2)c(OC)cc1N(C)CCN(C)C` [EGFR_3365_58, N-(5-((4-(4-(azetidin-1-yl)benzoyl)pyrimidin-2-yl)amino)-2-((2-(dimethylamino)ethyl)(methyl)amino)-4-methoxyphenyl)acrylamide], the “Stability in SIF, %” value in data set [1] is 100.0%. Besides, in data set [2], the midpoint of inhibition, the IC50, lay at 0.00623 µM. In data set [3], the Papp A→B at 2 h, 10 µM was determined as 5.8 ×10⁻⁶ cm/s and the efflux ratio at 2 h, 10 µM was determined as 1.1. In addition, the “Stability in blood plasma, %” value in data set [4] was 99.7%.

On to `C=CC(=O)Nc1cc(Nc2nccc(C(=O)c3ccc(N4CC(OC)C4)cc3)n2)c(OC)cc1N(C)CCN(C)C` [EGFR_3365_61, N-(2-((2-(dimethylamino)ethyl)(methyl)amino)-4-methoxy-5-((4-(4-(3-methoxyazetidin-1-yl)benzoyl)pyrimidin-2-yl)amino)phenyl)acrylamide], for which, in data set [1], the “Stability in SIF, %” value was 98.8%. Moreover, in data set [2], the half-maximal inhibitory concentration (IC50) stood at 0.00577 µM. In data set [3], the Papp A→B at 2 h, 10 µM is 5.5 ×10⁻⁶ cm/s and the efflux ratio at 2 h, 10 µM came out at 1.8. Besides, the “Stability in blood plasma, %” value in data set [4] is 91.8%.

For the compound `C=CC(=O)Nc1cc(Nc2nccc(C(=O)c3ccc(N4CCCC4)cc3)n2)c(OC)cc1N(C)CCN(C)C` [EGFR_3365_63, N-(2-((2-(dimethylamino)ethyl)(methyl)amino)-4-methoxy-5-((4-(4-(pyrrolidin-1-yl)benzoyl)pyrimidin-2-yl)amino)phenyl)acrylamide], the “Stability in SIF, %” value in data set [1] is reported as 100.0%. This compound displayed an IC50 in data set [2] of 0.00427 µM. Further, in data set [3], the Papp A→B at 2 h, 10 µM stood at 4.9 ×10⁻⁶ cm/s and the efflux ratio at 2 h, 10 µM is 1. Moreover, in data set [4], the “Stability in blood plasma, %” value was 100.0%.

On to `C=CC(=O)Nc1cc(Nc2nccc(C(=O)c3ccc(OCCCC)cc3)n2)c(OC)cc1N(C)CCN(C)C` [EGFR_3365_66, N-(5-((4-(4-butoxybenzoyl)pyrimidin-2-yl)amino)-2-((2-(dimethylamino)ethyl)(methyl)amino)-4-methoxyphenyl)acrylamide], for which the “Stability in SIF, %” value in data set [1] is given as 96.5%. This compound gave an IC50 in data set [2] of 0.0128 µM. Further, in data set [3], the Papp A→B at 2 h, 10 µM was 1.3 ×10⁻⁶ cm/s and the efflux ratio at 2 h, 10 µM turned out to be 0.4. The “Stability in blood plasma, %” value in data set [4] is 97.0%.

As to `C=CC(=O)Nc1cc(Nc2nccc(C(=O)c3ccc(OCCC)cc3OCCC)n2)c(OC)cc1N(C)CCN(C)C` [EGFR_3365_70, N-(2-((2-(dimethylamino)ethyl)(methyl)amino)-5-((4-(2,4-dipropoxybenzoyl)pyrimidin-2-yl)amino)-4-methoxyphenyl)acrylamide], the “Stability in SIF, %” value in data set [1] is 98.6%. In data set [2], this compound returned an IC50 of 0.0368 µM. Besides, in data set [3], the Papp A→B at 2 h, 10 µM worked out at 2.5 ×10⁻⁶ cm/s and the efflux ratio at 2 h, 10 µM stood at 0.4. In addition, the “Stability in blood plasma, %” value in data set [4] worked out at 90.0%.
